What was measured:
Assay in all cases: biochemical
Design in all cases: DiscoverX KINOMEscan scanMAX competition binding panel, single concentration, percent of control; remaining binding: dose or concentration left out as unconfirmed
Conditions in all cases: KINOMEscan binding, percent of control; read-out: Table S4_SCANMAX REPORT - related to Fig. 1 / Percent Control
PRP4 = target: T1, PRP4 (Homo sapiens, UniProt Q13523)
T1 construct: gene PRPF4B

FRK = FRK (Homo sapiens, UniProt P42685)
KIT(V559D,T670I) = KIT(V559D,T670I) (Homo sapiens, UniProt P10721, T670I/V559D)
CLK3 = CLK3 (Homo sapiens, UniProt P49761)
ALK = ALK (Homo sapiens, UniProt Q9UM73)
CDKL2 = CDKL2 (Homo sapiens, UniProt Q92772)
PIK3C2G = PIK3C2G (Homo sapiens, UniProt O75747)
TESK1 = TESK1 (Homo sapiens, UniProt Q15569)
PIK3CA = PIK3CA (Homo sapiens, UniProt P42336)
TIE2 = target: T2, TIE2 (Homo sapiens, UniProt Q02763)
T2 construct: gene TEK

EIF2AK1 = EIF2AK1 (Homo sapiens, UniProt Q9BQI3)
WEE1 = WEE1 (Homo sapiens, UniProt P30291)
CHEK2 = CHEK2 (Homo sapiens, UniProt O96017)
YSK1 = target: T3, YSK1 (Homo sapiens, UniProt O00506)
T3 construct: gene STK25

CLK4 = CLK4 (Homo sapiens, UniProt Q9HAZ1)
MAP3K2 = MAP3K2 (Homo sapiens, UniProt Q9Y2U5)
PIP5K2C = target: T4, PIP5K2C (Homo sapiens, UniProt Q8TBX8)
T4 construct: gene PIP4K2C

ADCK3 = target: T5, ADCK3 (Homo sapiens, UniProt Q8NI60)
T5 construct: gene COQ8A

ACVR2B = ACVR2B (Homo sapiens, UniProt Q13705)
Chain of ACVR2B (Q13705 whole entry): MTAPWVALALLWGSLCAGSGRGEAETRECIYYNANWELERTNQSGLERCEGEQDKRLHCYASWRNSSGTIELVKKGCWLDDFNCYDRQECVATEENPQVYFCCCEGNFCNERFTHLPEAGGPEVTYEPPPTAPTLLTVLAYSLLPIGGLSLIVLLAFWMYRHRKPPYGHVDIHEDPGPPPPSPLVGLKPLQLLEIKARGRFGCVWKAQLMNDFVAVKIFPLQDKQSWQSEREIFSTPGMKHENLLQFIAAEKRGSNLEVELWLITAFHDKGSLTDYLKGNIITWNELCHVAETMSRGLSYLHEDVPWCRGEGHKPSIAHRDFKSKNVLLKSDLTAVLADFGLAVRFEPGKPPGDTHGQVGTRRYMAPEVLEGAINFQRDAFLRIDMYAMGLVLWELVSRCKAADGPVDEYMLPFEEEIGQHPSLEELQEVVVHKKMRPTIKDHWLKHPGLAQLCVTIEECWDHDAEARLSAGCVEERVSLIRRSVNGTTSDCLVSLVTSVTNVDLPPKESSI

T1 sequence (Q13523 whole entry): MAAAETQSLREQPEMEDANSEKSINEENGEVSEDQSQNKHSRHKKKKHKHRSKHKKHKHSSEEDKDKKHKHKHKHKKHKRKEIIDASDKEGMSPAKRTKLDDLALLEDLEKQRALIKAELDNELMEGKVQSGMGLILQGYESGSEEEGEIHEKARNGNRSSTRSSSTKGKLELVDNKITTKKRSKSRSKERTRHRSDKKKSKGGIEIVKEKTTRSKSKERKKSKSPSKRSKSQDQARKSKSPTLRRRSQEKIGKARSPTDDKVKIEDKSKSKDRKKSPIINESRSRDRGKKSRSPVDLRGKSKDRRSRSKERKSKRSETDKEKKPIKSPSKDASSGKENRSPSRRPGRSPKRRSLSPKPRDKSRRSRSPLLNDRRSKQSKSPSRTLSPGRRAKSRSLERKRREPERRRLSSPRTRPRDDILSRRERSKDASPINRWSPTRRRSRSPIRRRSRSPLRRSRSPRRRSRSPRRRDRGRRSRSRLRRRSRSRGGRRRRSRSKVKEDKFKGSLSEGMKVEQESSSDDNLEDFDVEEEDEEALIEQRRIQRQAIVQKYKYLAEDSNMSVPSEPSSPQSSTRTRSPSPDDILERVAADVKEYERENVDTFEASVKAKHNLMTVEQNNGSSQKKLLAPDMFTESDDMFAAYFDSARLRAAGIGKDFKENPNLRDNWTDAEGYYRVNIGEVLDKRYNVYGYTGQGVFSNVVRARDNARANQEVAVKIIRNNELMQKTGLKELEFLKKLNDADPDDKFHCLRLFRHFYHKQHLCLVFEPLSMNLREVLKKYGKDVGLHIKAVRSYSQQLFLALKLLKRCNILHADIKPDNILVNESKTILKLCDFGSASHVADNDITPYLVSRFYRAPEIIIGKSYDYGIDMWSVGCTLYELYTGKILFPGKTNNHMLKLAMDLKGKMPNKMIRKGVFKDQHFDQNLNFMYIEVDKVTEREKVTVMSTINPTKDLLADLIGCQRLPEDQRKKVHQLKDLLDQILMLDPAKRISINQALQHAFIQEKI
Chain of CDKL2 (Q92772 whole entry): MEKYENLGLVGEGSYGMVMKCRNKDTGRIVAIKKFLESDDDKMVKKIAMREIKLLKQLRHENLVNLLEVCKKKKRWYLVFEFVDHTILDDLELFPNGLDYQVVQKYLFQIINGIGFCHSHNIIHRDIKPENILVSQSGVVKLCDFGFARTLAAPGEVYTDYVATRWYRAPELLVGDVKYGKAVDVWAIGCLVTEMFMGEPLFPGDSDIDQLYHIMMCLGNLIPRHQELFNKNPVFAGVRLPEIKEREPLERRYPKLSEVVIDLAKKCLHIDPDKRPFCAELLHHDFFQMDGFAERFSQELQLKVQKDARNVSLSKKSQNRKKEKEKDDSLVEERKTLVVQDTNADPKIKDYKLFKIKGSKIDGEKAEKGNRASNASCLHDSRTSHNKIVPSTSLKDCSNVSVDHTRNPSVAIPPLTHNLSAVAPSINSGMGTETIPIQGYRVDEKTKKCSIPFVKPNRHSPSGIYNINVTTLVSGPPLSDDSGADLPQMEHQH
T5 sequence (Q8NI60 whole entry): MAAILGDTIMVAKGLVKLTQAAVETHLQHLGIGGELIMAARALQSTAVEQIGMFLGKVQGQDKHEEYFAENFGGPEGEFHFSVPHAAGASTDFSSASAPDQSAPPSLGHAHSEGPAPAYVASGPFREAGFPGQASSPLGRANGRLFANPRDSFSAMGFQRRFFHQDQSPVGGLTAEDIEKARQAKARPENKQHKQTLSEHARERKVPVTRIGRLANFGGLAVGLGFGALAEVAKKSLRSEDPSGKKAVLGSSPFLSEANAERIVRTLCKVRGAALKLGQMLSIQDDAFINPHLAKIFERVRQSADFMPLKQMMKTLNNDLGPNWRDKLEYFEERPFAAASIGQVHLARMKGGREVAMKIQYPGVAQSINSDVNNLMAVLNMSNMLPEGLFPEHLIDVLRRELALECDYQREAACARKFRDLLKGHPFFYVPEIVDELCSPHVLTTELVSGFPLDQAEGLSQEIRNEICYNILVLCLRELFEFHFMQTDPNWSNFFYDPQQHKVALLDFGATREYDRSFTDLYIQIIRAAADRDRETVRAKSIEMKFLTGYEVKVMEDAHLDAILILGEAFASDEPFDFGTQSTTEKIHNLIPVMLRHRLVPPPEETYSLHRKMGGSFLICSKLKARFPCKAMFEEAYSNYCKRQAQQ
Chain of PIK3CA (P42336 whole entry): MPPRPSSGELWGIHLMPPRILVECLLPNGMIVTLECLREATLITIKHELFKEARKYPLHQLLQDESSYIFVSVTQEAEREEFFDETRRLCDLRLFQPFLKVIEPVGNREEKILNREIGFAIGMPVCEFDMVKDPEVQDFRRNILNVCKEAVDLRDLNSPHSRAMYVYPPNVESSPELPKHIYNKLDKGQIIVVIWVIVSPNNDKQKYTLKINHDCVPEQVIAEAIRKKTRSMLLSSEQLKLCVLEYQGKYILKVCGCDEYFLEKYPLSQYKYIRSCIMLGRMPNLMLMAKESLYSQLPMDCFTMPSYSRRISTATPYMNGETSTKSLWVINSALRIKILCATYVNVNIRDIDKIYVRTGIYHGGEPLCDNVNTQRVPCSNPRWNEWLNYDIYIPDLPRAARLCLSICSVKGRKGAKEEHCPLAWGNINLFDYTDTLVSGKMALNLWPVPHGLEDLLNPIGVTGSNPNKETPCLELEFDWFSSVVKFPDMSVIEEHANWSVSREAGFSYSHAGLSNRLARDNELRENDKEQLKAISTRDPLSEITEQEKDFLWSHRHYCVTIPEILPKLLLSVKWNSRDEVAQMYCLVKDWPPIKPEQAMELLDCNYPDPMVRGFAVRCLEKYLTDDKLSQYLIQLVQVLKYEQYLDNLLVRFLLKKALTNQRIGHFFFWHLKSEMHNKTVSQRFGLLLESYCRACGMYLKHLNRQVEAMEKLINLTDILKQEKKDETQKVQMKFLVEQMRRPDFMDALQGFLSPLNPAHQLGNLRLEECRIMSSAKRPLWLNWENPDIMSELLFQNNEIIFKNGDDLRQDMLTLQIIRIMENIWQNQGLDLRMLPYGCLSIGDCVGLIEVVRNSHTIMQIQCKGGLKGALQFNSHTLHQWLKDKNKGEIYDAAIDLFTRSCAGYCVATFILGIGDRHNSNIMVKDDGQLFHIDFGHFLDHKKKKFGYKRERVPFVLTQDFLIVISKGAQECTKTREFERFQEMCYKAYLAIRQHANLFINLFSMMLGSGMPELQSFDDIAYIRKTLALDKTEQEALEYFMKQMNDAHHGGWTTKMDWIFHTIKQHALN
Chain of KIT(V559D,T670I) (P10721 whole entry V559D/T670I): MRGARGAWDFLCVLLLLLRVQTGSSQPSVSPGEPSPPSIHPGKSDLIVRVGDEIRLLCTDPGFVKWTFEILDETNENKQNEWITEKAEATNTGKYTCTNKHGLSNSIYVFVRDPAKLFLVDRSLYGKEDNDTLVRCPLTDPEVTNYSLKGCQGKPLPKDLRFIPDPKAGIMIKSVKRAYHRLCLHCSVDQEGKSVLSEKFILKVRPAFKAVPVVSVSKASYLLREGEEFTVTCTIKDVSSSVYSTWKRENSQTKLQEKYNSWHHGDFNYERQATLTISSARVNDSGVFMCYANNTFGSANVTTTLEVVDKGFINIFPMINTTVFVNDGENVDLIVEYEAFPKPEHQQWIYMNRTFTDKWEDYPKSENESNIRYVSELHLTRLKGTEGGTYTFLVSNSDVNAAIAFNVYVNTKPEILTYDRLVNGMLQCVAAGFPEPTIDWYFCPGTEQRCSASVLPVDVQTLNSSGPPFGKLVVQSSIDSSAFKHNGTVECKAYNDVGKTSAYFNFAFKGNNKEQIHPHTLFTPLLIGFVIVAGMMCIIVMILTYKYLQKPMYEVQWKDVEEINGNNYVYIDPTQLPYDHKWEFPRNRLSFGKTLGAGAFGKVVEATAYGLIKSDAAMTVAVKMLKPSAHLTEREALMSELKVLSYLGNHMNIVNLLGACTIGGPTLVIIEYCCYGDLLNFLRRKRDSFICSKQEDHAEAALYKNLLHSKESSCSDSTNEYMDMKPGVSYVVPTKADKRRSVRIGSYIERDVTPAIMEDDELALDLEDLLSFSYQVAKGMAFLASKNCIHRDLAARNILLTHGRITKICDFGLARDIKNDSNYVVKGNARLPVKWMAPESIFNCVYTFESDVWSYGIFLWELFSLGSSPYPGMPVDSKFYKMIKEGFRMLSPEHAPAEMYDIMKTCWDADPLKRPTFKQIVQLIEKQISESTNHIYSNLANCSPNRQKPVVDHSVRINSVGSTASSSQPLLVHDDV

For `c1ccc2c(c1)Sc1ccccc1N2CCN1CCOCC1` [J54], the remaining binding (PRP4) was 74%, the remaining binding (FRK) was 100% and the remaining binding (KIT(V559D,T670I)) was 100%. It also gave a remaining binding (CLK3) of 92%, a remaining binding (ALK) of 59% and a remaining binding (CDKL2) of 100%. It also gave a remaining binding (PIK3C2G) of 74%, a remaining binding (TESK1) of 100% and a remaining binding (PIK3CA) of 94%. It also gave a remaining binding (TIE2) of 76%, a remaining binding (EIF2AK1) of 90% and a remaining binding (WEE1) of 78%. The remaining binding (CHEK2) was 100%, the remaining binding (YSK1) was 97% and the remaining binding (CLK4) was 100%. The remaining binding (MAP3K2) was 100%, the remaining binding (PIP5K2C) was 100% and the remaining binding (ADCK3) was 100%. The remaining binding (ACVR2B) was 86%.

From article PMC7486443, “Generation of Phenothiazine with Potent Anti-TLK1 Activity for Prostate Cancer Therapy” (iScience, 2020)
